In patent US12227500B2, “Substituted pyrrolo[2,3-b]pyridines for suppressing toxic endoplasmic reticulum stress” (THE TRUSTEES OF COLUMBIA UNIVERSITY IN THE CITY OF NEW YORK, priority 2018, dated 2025):

Tests used:
HGK/MAP4K4 = HGK/MAP4K4 (Homo sapiens, UniProt O95819); details: cited from earlier work
[1] = Spectrophotometric solubility assay of vehicle formulations (540 nM); format: physicochemical
Procedure: These mixtures were then read on a spectrophotometer at […] to assess optical density, a measure of the transparency of the mixture and an indicator of the formation of precipitates. […] At higher concentrations, these precipitates were visible by eye.
Compounds diluted in different vehicle formulations were added to clear cell culture media at ratios consistent with our in vivo dosing scheme.

[2] = system: human ALS stem cell-derived motor neurons; test: Rescue of CPA toxicity, 6-point dose-response assay (FIG. 2B); format: cell-based
[3] = Pharmacokinetics of compound 1 in mice (background); details: mouse, in vivo
[4] = system: targets of cyclin-dependent kinases and mitogen activated kinases; test: Target engagement in CNS, per os 7 days (phosphoprotein blot of brain); format: in vivo, mouse; details: 5 or 10 mg/kg
Procedure: To explore the target engagement in CNS for compound 12k, compounds 1 and 12k were administered continuously per os to wild-type mice (n=3 per treatment). […] Fresh brain samples were harvested after 7 days of treatment. Reduced brain samples were separated by SDS-PAGE and probed with an antibody that recognizes phosphoproteins that have been phosphorylated at motifs corresponding to the targets of cyclin-dependent kinases and mitogen activated kinases.

[5] = system: panel of 371 human kinases; test: Radiolabeled ATP kinase assay, panel of 371 kinases (Table S6); format: biochemical; details: 0.1 μM, 10 μM ATP
Source text: ; FIG. 38C). […]. Further targeted analyses, such as genetic knock-down or knock-out, may be warranted to parse the role of these additional kinases in our model of neurodegeneration.

Chain of HGK/MAP4K4 (O95819 whole entry, species assumed): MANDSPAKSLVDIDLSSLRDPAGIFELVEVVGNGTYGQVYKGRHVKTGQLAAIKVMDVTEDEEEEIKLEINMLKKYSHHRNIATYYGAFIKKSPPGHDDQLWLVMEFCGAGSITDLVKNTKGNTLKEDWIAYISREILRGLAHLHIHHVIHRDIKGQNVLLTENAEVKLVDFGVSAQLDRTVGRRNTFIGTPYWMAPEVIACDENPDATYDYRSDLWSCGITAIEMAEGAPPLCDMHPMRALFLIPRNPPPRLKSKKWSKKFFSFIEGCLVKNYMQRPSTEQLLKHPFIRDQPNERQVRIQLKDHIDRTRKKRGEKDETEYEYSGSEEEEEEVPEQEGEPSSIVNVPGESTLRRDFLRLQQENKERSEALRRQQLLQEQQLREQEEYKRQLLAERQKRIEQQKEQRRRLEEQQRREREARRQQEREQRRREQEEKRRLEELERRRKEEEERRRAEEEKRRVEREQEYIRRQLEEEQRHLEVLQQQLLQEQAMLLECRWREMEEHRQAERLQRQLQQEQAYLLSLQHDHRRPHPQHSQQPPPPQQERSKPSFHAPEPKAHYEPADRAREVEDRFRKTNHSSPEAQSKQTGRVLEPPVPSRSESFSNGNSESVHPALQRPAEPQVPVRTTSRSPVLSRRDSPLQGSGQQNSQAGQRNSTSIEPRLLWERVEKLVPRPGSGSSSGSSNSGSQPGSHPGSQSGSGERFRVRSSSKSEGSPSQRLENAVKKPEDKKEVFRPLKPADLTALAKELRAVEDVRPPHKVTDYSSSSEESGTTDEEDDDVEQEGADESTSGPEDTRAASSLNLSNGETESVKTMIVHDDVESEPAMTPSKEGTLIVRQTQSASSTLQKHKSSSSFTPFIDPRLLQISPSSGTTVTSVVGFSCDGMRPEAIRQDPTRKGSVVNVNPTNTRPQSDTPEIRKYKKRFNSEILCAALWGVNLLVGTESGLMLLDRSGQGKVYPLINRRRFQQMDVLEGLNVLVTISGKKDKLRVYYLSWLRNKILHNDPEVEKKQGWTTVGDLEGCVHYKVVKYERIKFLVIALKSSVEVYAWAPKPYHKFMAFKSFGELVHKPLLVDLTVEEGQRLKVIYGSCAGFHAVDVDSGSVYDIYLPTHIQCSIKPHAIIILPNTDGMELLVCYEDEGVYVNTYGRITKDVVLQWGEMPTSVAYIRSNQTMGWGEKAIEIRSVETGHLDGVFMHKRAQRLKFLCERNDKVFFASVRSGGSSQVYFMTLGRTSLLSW

Row | SMILES | HGK enzyme activity remaining (HGK/MAP4K4; 1 μM treatment) [%] | inhibition of HGK activity in a cell-free assay (HGK/MAP4K4; 1 μM, Goodfellow et al. 2013) [%] | solubility after adding 2-hydroxypropyl-β-cyclodextrin to the vehicle ([1]; 11% 2-hydroxypropyl-β-cyclodextrin) | solubility in cell culture media ([1]; formulation 55% saline, 40% PEG-400, 5% DMSO) | cellular potency [2] [nM] | concentrations showing protective effects ([2]; 33 μM CPA) [nM] | concentration that completely reversed CPA-induced neurodegeneration ([2]; 33 μM CPA, 0.01 μM-3 μM) [µM] | half-life [3] [h] | intensity of a high molecular weight phosphoprotein band in brain vs vehicle or compound 1 [4] | % Enzyme Activity (relative to DMSO controls) ([5]; LYN B) [%] | % Enzyme Activity (relative to DMSO controls) ([5]; PKCb2) [%] | % Enzyme Activity (relative to DMSO controls) ([5]; PKG1b) [%]
1 | CN1CCN(Cc2ccc(-c3cnc4[nH]cc(-c5ccc6[nH]ccc6c5)c4c3)cc2)CC1 [Compound 1, 3-(1H-Indol-5-yl)-5-(4-((4-methylpiperazin-1-yl)methyl)phenyl)-1H-pyrrolo[2,3-b]pyridine, reference compound] | 0.54 | > 99 | fully solubilize | highly insoluble | > 100 | ≥ 100 | 1 | 2 to 3 |  |  |  | 
2 | OCCN1CCN(Cc2ccc(-c3cnc4[nH]cc(-c5cccc(Cl)c5)c4c3)cc2)CC1 [Compound 12k, 2-(4-(4-(3-(3-Chlorophenyl)-1H-pyrrolo[2,3-b]pyridin-5-yl)benzyl)piperazin-1-yl)ethan-1-ol] |  |  |  |  |  |  |  |  | consistently decreased the intensity of a high molecular weight band | 89.48 | 89.45 | 101.46
